# Reference: PMC13286573, “Exploration of precision coregulator TR-FRET identifies diverse signatures for LXR ligands relevant to discovery of nonlipogenic ABCA1 inducers” (eLife, 2026)
# Entries after “also recorded” stand apart in the source; their conditions may differ. Read-outs that look alike come from different tables or passages of the source.
# What was measured:
# LXR = experiment: Corepressor (NCOR2, SMRT2) binding to LXR, CRT, statements across isoforms; assay type: biochemical; conditions: monoplex CRT, absence of coactivator
# LXRα [1] = biological target: T1, LXRα (Homo sapiens, UniProt Q13133); experiment: NCOR2 corepressor binding to LXRα, CRT; assay type: biochemical; design: The CRT selectivity assay incorporates GST-tagged LXR-LBD; purchased Thermo Fisher Scientific PV4657; conditions: read-out: NCOR2α, relative % activity at 1 μM
# T1 sequence (Q13133 209-447 limits assumed): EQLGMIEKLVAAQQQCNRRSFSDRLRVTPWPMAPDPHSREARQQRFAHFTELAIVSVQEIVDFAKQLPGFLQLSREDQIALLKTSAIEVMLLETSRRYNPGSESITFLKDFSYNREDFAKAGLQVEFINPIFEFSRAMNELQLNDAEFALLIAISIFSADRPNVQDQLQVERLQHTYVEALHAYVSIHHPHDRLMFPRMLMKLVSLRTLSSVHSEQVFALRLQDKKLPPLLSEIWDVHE
# [2] = test system: mouse model of non-alcoholic steatohepatitis (NASH); design: method as in Griffett et al., 2015; Griffett and Burris, 2016; conditions: ref Griffett et al., 2015; Griffett and Burris, 2016; cited from earlier work
# LXRβ [3] = biological target: T2, LXRβ (Homo sapiens, UniProt P55055); experiment: SRC-1 coactivator recruitment to LXRβ, coregulator TR-FRET (CRT); assay type: biochemical; design: The CRT selectivity assay incorporates GST-tagged LXR-LBD; purchased Thermo Fisher Scientific PV4660
# T2 sequence (P55055 222-460 limits assumed): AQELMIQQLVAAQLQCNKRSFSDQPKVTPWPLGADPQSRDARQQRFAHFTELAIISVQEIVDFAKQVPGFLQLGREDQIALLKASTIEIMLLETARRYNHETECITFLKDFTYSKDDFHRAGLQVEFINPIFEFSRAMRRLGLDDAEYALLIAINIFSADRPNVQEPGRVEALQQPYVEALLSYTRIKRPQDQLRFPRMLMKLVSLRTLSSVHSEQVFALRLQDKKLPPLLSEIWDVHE
# SREBF1, FAS, and SCD1 = experiment: RT-PCR of lipogenic genes SREBF1, FAS, SCD1 in HepG2 cells; assay type: cell-based, human; conditions: HepG2, same conditions as SRE-luc
# Protocol: Three of the biphenyl sulfones, XL041, XL652, and SR9238, gave anomalous activation data at concentrations above 1 µM, associated with interference with the nanoluciferase reporter (Figure 5—figure supplement 1). Owing to the anomalous response in the reporter assay, we measured lipogenic genes, SREBF1, FAS, and SCD1 by RT-PCR in HepG2 cells in response to treatment with the biphenyl sulfones (Figure 5G–I).
# HepG2 cells were seeded in 12-well plates and treated with compounds for 24 hr. Following treatment, cells were washed once with PBS and then lysed in 350 μL of RLT buffer (Qiagen). Lysates were immediately frozen at −80 °C until RNA extraction. Total RNA was extracted using RNeasy Plus Mini columns (Qiagen) according to the manufacturer’s instructions. RNA concentration and purity were assessed using the A260/A280 ratio measured on a Synergy Neo2 plate reader (BioTek). […] Quantitative PCR was performed using TaqMan Gene Expression Master Mix (Invitrogen) with 2 μL of cDNA and gene-specific TaqMan probes in a 20 μL reaction volume per well. The following TaqMan assays were used: ABCA1: Hs01059101_m1, SREBF1: Hs01088691_m1, SCD: Hs01682761_m1, FASN: Hs01005622_m1, and HPRT1 (endogenous control): Hs02800695_m1. qPCR was performed on a StepOne Real-Time PCR System (Applied Biosystems), and gene expression was quantified using the ΔΔCt method.
# LXRβ [4] = biological target: T2, LXRβ; experiment: NCOR2 corepressor binding to LXRβ, CRT; assay type: biochemical; design: The CRT selectivity assay incorporates GST-tagged LXR-LBD; purchased Thermo Fisher Scientific PV4660; conditions: read-out: NCOR2β, relative % activity at 1 μM
# LXRα [5] = biological target: T1, LXRα; experiment: SMRT2 corepressor binding to LXRα, CRT; assay type: biochemical; design: The CRT selectivity assay incorporates GST-tagged LXR-LBD; purchased Thermo Fisher Scientific PV4657; conditions: read-out: SMRT2α, relative % activity at 1 μM
# LXRβ [6] = biological target: T2, LXRβ; conditions: in the absence of agonist
# LXRα [7] = biological target: T1, LXRα; conditions: in the absence of agonist
# obese mice on HFD = test system: obese mice on HFD; design: method as in Griffett et al., 2015; conditions: ref Griffett et al., 2015; cited from earlier work
# [8] = ligand 1 µM, interpolated from concentration-response, normalized, heat map Figure 9A
Compound,"Corepressor (NCOR2, SMRT2) displacement or stabilization, across LXR isoforms (LXR)",activity at 1 µM (LXRα [1]; [8]),Hepatic effects in NASH mouse model [2],Antagonism of 24HC agonism at LXRβ (SRC-1 CRT) (LXRβ [3]),"Lipogenic gene transcription (SREBF1, FAS, SCD1) by RT-PCR (SREBF1, FAS, and SCD1)",activity at 1 µM (LXRβ [4]),activity at 1 µM (LXRα [5]; [8]),activity at 1 µM (LXRα [1]),Coactivator recruitment to LXRβ (LXRβ [6]),Antagonism of 24HC agonism at LXRβ (SRC-1 CRT) (LXRβ [3]; in the presence of 24HC (3 µM)),Coactivator recruitment to LXRα (LXRα [7]),Plasma TG (obese mice on HFD),activity at 1 µM (LXRα [5])
Cc1cc(C)c(S(=O)(=O)N(Cc2ccc(-c3cccc(S(C)(=O)=O)c3)cc2)Cc2ccc(C(F)(F)F)o2)c(C)c1 [GSK2033],little or no ability to displace NCOR2 and SMRT2 corepressors from LXR; also recorded: does not stabilize a conformation that disrupts corepressor binding to LXRα,97.7%,no beneficial effects on hepatic steatosis,antagonized the agonism of 24HC at LXRβ,reducing lipogenic gene transcription below baseline,57.7%,92.9%,,,,,,
CCOC(=O)c1ccc(CN(Cc2ccc(-c3cccc(S(C)(=O)=O)c3)cc2)S(=O)(=O)c2c(C)cc(C)cc2C)o1 [SR9238],strong agonist responses,,significantly reduced hepatic inflammation and fibrosis,,reducing lipogenic gene transcription below baseline,21.9%,,64.5%,very weakly supported coactivator recruitment to LXRβ,antagonized the agonism of 24HC at LXRβ,unable to recruit coactivators to LXRα,plasma TG was suppressed,64.5%
